Data: patent US10570140B2, “Selective inhibitors of protein arginine methyltransferase 5 (PRMT5)” (Prelude Therapeutics, Incorporated, priority 2017, dated 2020)
Where two headings read alike, the source gives them in different places.

Legend:
PRMT5/MEP50 complex = PRMT5/MEP50 complex (Homo sapiens (Human), UniProt O14744); assay: PRMT5 biochemical assay (3H-SAM filter plate, histone H2A substrate)
Experimental: Biochemical Assay Protocol
Compounds were solubilized and 3-fold diluted in 100% DMSO. […] Standard reactions were performed in a total volume of 50 μl in assay buffer, with histone H2A (5 μM final) as substrate. To this was added the PRMT5/MEP50 complex diluted to provide a final assay concentration of 5 nM and the compounds were allowed to preincubate for 15 to 20 minutes at room temperature. The reaction was initiated by adding S-[3H-methyl]-adenosyl-L-methionine (PerkinElmer) to final concentration of 1 μM. Following a 60 minutes incubation at 30° C., the reaction was stopped by adding 100 μL of 20% TCA. Each reaction was spotted onto filter plate (MultiScreen FB Filter Plate, Millipore), and washed 5 times with PBS buffer, Scintillation fluid was added to the filter plate and read in a scintillation counter. IC50 values were determined by fitting the data to the standard 4 parameters with Hill Slope using GraphPad Prism software.

sDMA = assay: Western blot for symmetric di-methyl arginine (sDMA) IC50 in Granta cells; type: cell-based; conditions: Homo sapiens, 72 h; Granta-519 cell line, 3 days
[1] = PRMT5/MEP50 5 nM, histone H2A 5 μM, SAM 1 μM, read-out: PRMT5 IC50

Sequence of PRMT5/MEP50 complex (O14744 whole entry): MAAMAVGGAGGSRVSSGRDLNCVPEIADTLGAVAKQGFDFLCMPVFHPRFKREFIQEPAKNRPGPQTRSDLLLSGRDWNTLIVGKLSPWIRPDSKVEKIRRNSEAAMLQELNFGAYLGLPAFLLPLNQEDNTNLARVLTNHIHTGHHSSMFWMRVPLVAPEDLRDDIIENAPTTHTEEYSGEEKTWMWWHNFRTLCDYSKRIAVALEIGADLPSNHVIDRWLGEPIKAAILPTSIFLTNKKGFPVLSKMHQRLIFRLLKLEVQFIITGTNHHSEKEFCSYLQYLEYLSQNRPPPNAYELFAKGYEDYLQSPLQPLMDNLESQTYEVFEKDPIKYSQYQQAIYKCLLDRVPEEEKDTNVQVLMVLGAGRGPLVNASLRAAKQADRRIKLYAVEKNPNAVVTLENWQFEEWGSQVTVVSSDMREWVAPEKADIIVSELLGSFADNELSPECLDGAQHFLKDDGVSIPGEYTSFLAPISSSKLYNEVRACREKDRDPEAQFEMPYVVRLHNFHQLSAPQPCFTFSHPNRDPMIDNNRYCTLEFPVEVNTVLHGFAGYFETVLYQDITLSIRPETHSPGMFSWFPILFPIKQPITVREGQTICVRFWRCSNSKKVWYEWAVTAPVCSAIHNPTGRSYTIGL
Sequence of PRMT5/MEP50 complex (Q9BQA1 whole entry partner): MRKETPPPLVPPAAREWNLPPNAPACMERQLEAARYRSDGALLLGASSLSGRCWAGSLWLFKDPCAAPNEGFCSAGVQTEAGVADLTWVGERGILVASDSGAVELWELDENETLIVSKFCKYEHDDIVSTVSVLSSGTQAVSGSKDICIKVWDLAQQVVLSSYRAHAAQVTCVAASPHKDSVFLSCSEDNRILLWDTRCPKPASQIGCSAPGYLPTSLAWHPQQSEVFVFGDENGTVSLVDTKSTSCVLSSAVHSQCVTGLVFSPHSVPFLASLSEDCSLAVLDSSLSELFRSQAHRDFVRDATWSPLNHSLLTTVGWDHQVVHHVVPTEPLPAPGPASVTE

| Compound | IC50 (PRMT5/MEP50 complex; [1]) [nM] | IC50 (PRMT5/MEP50 complex) [nM] | IC50 (sDMA) [nM] |
| --- | --- | --- | --- |
| Cc1ncnc2c1ccn2[C@@H]1O[C@H]([C@H](O)c2ccc(F)c(C(F)(F)F)c2)[C@@](C)(O)[C@H]1O [Example 61, (2R,3S,4R,5R)-2-((R)-(4-fluoro-3-(trifluorometh-yl)phenyl)(hydroxy)methyl)-3-methyl-5-(4-methyl-7H-pyrrolo[2,3-d]pyrimidin-7-yl)tetrahydrofuran-3,4-diol] | 16 |  |  |
| CO/N=c1\[nH]cnc2c1ccn2[C@@H]1O[C@H](COc2ccc3ccc(N)nc3c2)[C@@](C)(O)[C@H]1O [Example 32, 7-((2R,3R,4S,5R)-5-(((2-aminoquinolin-7-yl)oxy)methyl)-3,4-dihydroxy-4-methyltetrahydrofuran-2-yl)-3,7-dihydro-4H-pyrrolo[2,3-d]pyrimidin-4-one O-methyloxime] |  | 10 |  |
| C[C@@]1(O)[C@@H](COc2ccc3cc(Br)c(N)nc3c2)O[C@@H](n2ccc3c(N)ncnc32)[C@@H]1O [Example 12, (2R,3S,4R,5R)-2-(((2-amino-3-bromoquinolin-7-yl)oxy)methyl)-5-(4-amino-7H-pyrrolo[2,3-d]pyrimidin-7-yl)-3-methyltetrahydrofuran-3,4-diol] | 0.5 |  | 1 |
| C[C@@]1(O)[C@@H](Cc2ccc(Cl)c(Cl)c2)O[C@@H](n2ccc3cncnc32)[C@@H]1O [Example 51, (2R,3S,4R,5R)-2-(3,4-dichlorobenzyl)-3-methyl-5-(7H-pyrrolo[2,3-d]pyrimidin-7-yl)tetrahydrofuran-3,4-diol] | 404 |  |  |
| C[C@@]1(O)[C@@H](COc2cccc(CN)c2)O[C@@H](n2ccc3c(N)ncnc32)[C@@H]1O [Example 22, (2R,3S,4R,5R)-5-(4-amino-7H-pyrrolo[2,3-d]pyrimidin-7-yl)-2-((3-(aminomethyl)phenoxy)methyl)-3-methyltetrahydrofuran-3,4-diol] | 126 |  | 60000 |
| COC[C@H]1O[C@@H](n2ccc3c(N)ncnc32)[C@H](O)[C@]1(C)O [Example 19, (2R,3S,4R,5R)-5-(4-amino-7H-pyrrolo[2,3-d]pyrimidin-7-yl)-2-(methoxymethyl)-3-methyltetrahydrofuran-3,4-diol] | 1440 |  |  |
| Cc1ncnc2c1ccn2[C@@H]1O[C@H](Cc2ccc(Cl)cc2CO)[C@@](C)(O)[C@H]1O [Example 64, (2R,3S,4R,5R)-2-(4-chloro-2-(hydroxymethyl)benzyl)-3-methyl-5-(4-methyl-7H-pyrrolo[2,3-d]pyrimidin-7-yl)tetrahydrofuran-3,4-diol] | 1610 |  |  |
| C[C@@]1(O)[C@@H](Cc2ccc3c(c2)OCO3)O[C@@H](n2ccc3c(N)ncnc32)[C@@H]1O [Example 49, (2R,3S,4R,5R)-5-(4-amino-7H-pyrrolo[2,3-d]pyrimidin-7-yl)-2-(benzo[d][1,3]dioxol-5-ylmethyl)-3-methyltetrahydrofuran-3,4-diol] | 229 |  |  |
| Cc1ncnc2c1ccn2[C@@H]1O[C@H]([C@H](O)c2ccc(OC(F)(F)F)cc2)[C@@](C)(O)[C@H]1O [Example 60, (2R,3S,4R,5R)-2-((R)-hydroxy(4-(trifluoromethoxy)phenyl)methyl)-3-methyl-5-(4-methyl-7H-pyrrolo[2,3-d]pyrimidin-7-yl)tetrahydrofuran-3,4-diol] | 368 |  |  |
| CO/N=c1\[nH]cnc2c1ccn2[C@@H]1O[C@H](COc2ccc3ccc(NOC)nc3c2)[C@@](C)(O)[C@H]1O [Example 45, (Z)-7-((2R,3R,4S,5R)-3,4-dihydroxy-5-(((2-(methoxyamino)quinolin-7-yl)oxy)methyl)-4-methyltetrahydrofuran-2-yl)-3,7-dihydro-4H-pyrrolo[2,3-d]pyrimidin-4-one O-methyl oxime] | 11500 |  |  |
| CO/N=c1/nc[nH]c2c1ccn2[C@@H]1O[C@H]([C@H](O)c2ccc(Cl)c(Cl)c2)[C@@](C)(O)[C@H]1O [Example 37, 7-((2R,3R,4S,5R)-5-((R)-(3,4-dichlorophenyl)(hydroxy)methyl)-3,4-dihydroxy-4-methyltetrahydrofuran-2-yl)-1,7-dihydro-4H-pyrrolo[2,3-d]pyrimidin-4-one O-methyl oxime] | 428 |  |  |
| C[C@@]1(O)[C@@H](COc2cccc(NC(N)=O)c2)O[C@@H](n2ccc3c(N)ncnc32)[C@@H]1O [Example 21, 1-(3-(((2R,3S,4R,5R)-5-(4-amino-7H-pyrrolo[2,3-d]pyrimidin-7-yl)-3,4-dihydroxy-3-methyltetrahydrofuran-2-yl)methoxy)phenyl)urea] | 7840 |  |  |
| C[C@@]1(O)[C@@H](C(=O)Nc2cccc(CN)c2)O[C@@H](n2ccc3c(N)ncnc32)[C@@H]1O [Example 43, (2S,3S,4R,5R)-5-(4-amino-7H-pyrrolo[2,3-d]pyrimidin-7-yl)-N-(3-(aminomethyl)phenyl)-3,4-dihydroxy-3-methyltetrahydrofuran-2-carboxamide] | 825 |  |  |
| C[C@@]1(O)[C@@H](COc2ccc3cccnc3c2)O[C@@H](n2ccc3c(N)ncnc32)[C@@H]1O [Example 53, (2R,3S,4R,5R)-5-(4-amino-7H-pyrrolo[2,3-d]pyrimidin-7-yl)-3-methyl-2-((quinolin-7-yloxy)methyl)tetrahydrofuran-3,4-diol] | 5.8 |  |  |
| Cc1cnc2cc(OC[C@H]3O[C@@H](n4ccc5c(N)ncnc54)[C@H](O)[C@]3(C)O)ccn12 [Example 68, (2R,3S,4R,5R)-5-(4-amino-7H-pyrrolo[2,3-d]pyrimidin-7-yl)-3-methyl-2-(((3-methylimidazo[1,2-a]pyridin-7-yl)oxy)methyl)tetrahydrofuran-3,4-diol] | 0.9 |  |  |
| CNc1ncnc2c1ccn2[C@@H]1O[C@H](CSC)[C@@](C)(O)[C@H]1O [Example 40, (2S,3S,4R,5R)-3-methyl-5-(4-(methylamino)-7H-pyrrolo[2,3-d]pyrimidin-7-yl)-2-((methylthio)methyl)tetrahydrofuran-3,4-diol] | 14100 |  |  |
| CO/N=c1\[nH]cnc2c1ccn2[C@@H]1O[C@H]([C@H](O)c2ccc(Cl)cc2)[C@@](C)(O)[C@H]1O [Example 44, (Z)-7-((2R,3R,4S,5R)-5-((R)-(4-chlorophenyl)(hydroxy)methyl)-3,4-dihydroxy-4-methyltetrahydrofuran-2-yl)-3,7-dihydro-4H-pyrrolo[2,3-d]pyrimidin-4-one O-methyl oxime] | 3480 |  |  |
| C[C@@]1(O)[C@@H](Cc2ccc(Cl)cc2CO)O[C@@H](n2ccc3c(N)ncnc32)[C@@H]1O [Example 65, (2R,3S,4R,5R)-5-(4-amino-7H-pyrrolo[2,3-d]pyrimidin-7-yl)-2-(4-chloro-2-(hydroxymethyl)benzyl)-3-methyltetrahydrofuran-3,4-diol] | 413 |  |  |
| Cc1ncnc2c1ccn2[C@@H]1O[C@H]([C@H](O)c2ccc(C(C)C)cc2)[C@@](C)(O)[C@H]1O [Example 59, (2R,3S,4R,5R)-2-((R)-hydroxy(4-isopropylphenyl)methyl)-3-methyl-5-(4-methyl-7H-pyrrolo[2,3-d]pyrimidin-7-yl)tetrahydrofuran-3,4-diol] | 399 |  |  |
| C[C@@]1(O)[C@@H]([C@H](O)c2ccc(Cl)cc2)O[C@@H](n2ccc3/c(=N/O)[nH]cnc32)[C@@H]1O [Example 46, (Z)-7-((2R,3R,4S,5R)-5-((R)-(4-chlorophenyl)(hydroxy)methyl)-3,4-dihydroxy-4-methyltetrahydrofuran-2-yl)-3,7-dihydro-4H-pyrrolo[2,3-d]pyrimidin-4-one oxime] | 92 |  |  |
| C[C@@]1(O)[C@@H](C(=O)Nc2cccc(CN)c2)O[C@@H](n2ccc3c(Cl)ncnc32)[C@@H]1O [Example 42, (2S,3S,4R,5R)-N-(3-(aminomethyl)phenyl)-5-(4-chloro-7H-pyrrolo[2,3-d]pyrimidin-7-yl)-3,4-dihydroxy-3-methyltetrahydrofuran-2-carboxamide] | 9100 |  |  |
| C=C[C@@]1(O)[C@@H](COc2ccc3ccc(N)nc3c2)O[C@@H](n2ccc3c(N)ncnc32)[C@@H]1O [Example 4, (2R,3S,4R,5R)-5-(4-amino-7H-pyrrolo[2,3-d]pyrimidin-7-yl)-2-(((2-aminoquinolin-7-yl)oxy)methyl)-3-vinyltetrahydrofuran-3,4-diol] | 8.7 |  |  |
| Cc1ncnc2c1ccn2[C@@H]1O[C@H](COc2ccc3cccnc3c2)[C@@](C)(O)[C@H]1O [Example 54, (2R,3S,4R,5R)-3-methyl-5-(4-methyl-7H-pyrrolo[2,3-d]pyrimidin-7-yl)-2-((quinolin-7-yloxy)methyl)tetrahydrofuran-3,4-diol] | 198 |  |  |
| C[C@@]1(O)[C@@H](COc2ccccc2)O[C@@H](n2ccc3c(N)ncnc32)[C@@H]1O [Example 20, (2R,3S,4R,5R)-5-(4-amino-7H-pyrrolo[2,3-d]pyrimidin-7-yl)-3-methyl-2-(phenoxymethyl)tetrahydrofuran-3,4-diol] | 14300 |  |  |
| Cc1ncnc2c1ccn2[C@@H]1O[C@H](COc2ccc3ccc(N)nc3c2)[C@@](C)(O)[C@H]1O [Example 10, (2R,3S,4R,5R)-2-(((2-aminoquinolin-7-yl)oxy)methyl)-3-methyl-5-(4-methyl-7H-pyrrolo[2,3-d]pyrimidin-7-yl)tetrahydrofuran-3,4-diol] | 1.1 |  |  |
| C[C@@]1(O)[C@@H](COc2cccc(NC(N)=O)c2)O[C@@H](n2ccc3c(Cl)ncnc32)[C@@H]1O [Example 41, 1-(3-(((2R,3S,4R,5R)-5-(4-chloro-7H-pyrrolo[2,3-d]pyrimidin-7-yl)-3,4-dihydroxy-3-methyltetrahydrofuran-2-yl)methoxy)phenyl)urea] | 200000 |  |  |
